Drawing on patent US20230087118A1, “IMIDAZO[1,2-a][sequence] DERIVATIVES AND THEIR USE IN THE TREATMENT OF DISEASE” (priority 2019, published 2023), this text covers IC50 for 36 molecules.

Structures are written as SMILES. Structures can show the parent of a compound that is named as a salt.

The first assay deals with T1, IRAK4 (Homo sapiens, UniProt Q9NWZ3).
T1 sequence (Q9NWZ3 1-460): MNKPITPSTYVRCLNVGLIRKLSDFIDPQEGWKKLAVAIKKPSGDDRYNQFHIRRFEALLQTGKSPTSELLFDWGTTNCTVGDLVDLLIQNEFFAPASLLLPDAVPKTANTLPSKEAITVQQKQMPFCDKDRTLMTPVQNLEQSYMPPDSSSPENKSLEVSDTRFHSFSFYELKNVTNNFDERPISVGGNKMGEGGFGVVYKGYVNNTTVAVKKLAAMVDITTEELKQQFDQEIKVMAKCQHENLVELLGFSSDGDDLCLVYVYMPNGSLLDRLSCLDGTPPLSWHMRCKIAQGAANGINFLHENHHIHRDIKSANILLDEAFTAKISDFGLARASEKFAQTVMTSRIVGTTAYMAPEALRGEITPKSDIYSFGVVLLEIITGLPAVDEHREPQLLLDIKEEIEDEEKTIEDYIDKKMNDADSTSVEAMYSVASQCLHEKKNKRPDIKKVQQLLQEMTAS
Nature of the assay: biochemical.
Conditions: not given
In the case of `CCOc1nc(C(=O)Nc2cccc(Cl)c2F)cn2cc(C34COC(C)(C3)C4)nc12` [Example 488, N-(3-chloro-2-fluorophenyl)-8-ethoxy-2-(1-methyl-2-oxabicyclo[2.1.1]hexan-4-yl)imidazo[1,2-a]pyrazine-6-carboxamide], the IC50 was 0.0081 µM.
With `COCCn1ccc(NC(=O)c2cn3cc(C45COC(C)(C4)C5)nc3cc2OC(C)C)n1` [Example 314, 7-Isopropoxy-N-(1-(2-methoxyethyl)-1H-pyrazol-3-yl)-2-(1-methyl-2-oxabicyclo[2.1.1]hexan-4-yl)imidazo[1,2-a]pyridine-6-carboxamide], the IC50 turned out to be 0.0258 µM.
As for `CC(C)Oc1nc(C(=O)Nc2cccc(C(F)F)n2)cn2cc([C@@]34CC[C@@](C)(C3)OC4)nc12` (single isomer, unassigned) [Example 588], 0.0015 µM corresponded to half-maximal inhibition (IC50).
For the molecule `Cc1cc(-n2ccc(NC(=O)c3cn4cc(C56CCC(C)(C5)OC6)nc4cc3OC3CCC3)n2)ccn1` (stereo not drawn) [Example 531, 7-Cyclobutoxy-2-(1-methyl-2-oxabicyclo[2.2.1]heptan-4-yl)-N-(1-(2-methylpyridin-4-yl)-1H-pyrazol-3-yl)imidazo[1,2-a]pyridine-6-carboxamide], half-maximal inhibition (IC50) required 0.0008 µM.
In turn, `CC(C)Oc1cc2nc(Cl)cn2cc1C(=O)Nc1cccc(C(F)F)n1` [Example 265, 2-Chloro-N-(6-(difluoromethyl)pyridin-2-yl)-7-isopropoxyimidazo[1,2-a]pyridine-6-carboxamide] gave an IC50 of 0.0067 µM.
Consider `COCCn1ccc(NC(=O)c2cn3cc(C4C5COCC54)nc3cn2)n1` (stereo not drawn) [Example 84], for which inhibition was half-maximal at 7.51 µM (IC50).
The molecule `CC(C)Oc1nc2nc([C@]34CC[C@](C)(C3)OC4)cn2cc1C(=O)Nc1cccn(C(F)F)c1=O` (single isomer, unassigned) [Example 629] registered an IC50 of 0.0003 µM.
Same read-out and setting: with `CC(C)Oc1cc2nccn2cc1C(=O)Nc1cccc(C(F)F)n1` [Example 220] the figure was 0.0115 µM; with `CCn1ccc(NC(=O)c2cn3cc(C45CCC(C)(C4)OC5)nc3cc2OC(C)C)n1` (stereo not drawn) [Example 508, N-(1-ethyl-1H-pyrazol-3-yl)-7-isopropoxy-2-(1-methyl-2-oxabicyclo[2.2.1]heptan-4-yl)imidazo[1,2-a]pyridine-6-carboxamide], 0.0023 µM; with `CC(C)Oc1cc2nc(C3COCCO3)cn2cc1C(=O)Nc1cccc(C(F)F)n1` (stereo not drawn) [Example 330, N-(6-(difluoromethyl)pyridin-2-yl)-2-(1,4-dioxan-2-yl)-7-isopropoxy-imidazo[1,2-a]pyridine-6-carboxamide], 0.0002 µM.
Same read-out and setting: for `COc1nc(C(=O)Nc2cccc3c2CCC3)cn2cc(C3CCOCC3)nc12` [Example 210] the value was 0.302 µM; for `CC(C)Oc1nc(C(=O)Nc2cccc(C(F)F)n2)cn2cc(C34COC(CF)(C3)C4)nc12` [Example 338, N-(6-(difluoromethyl)pyridin-2-yl)-2-(1-(fluoromethyl)-2-oxabicyclo[2.1.1]hexan-4-yl)-8-isopropoxyimidazo[1,2-a]pyrazine-6-carboxamide], 0.0105 µM.
Turning to `CC12CC(c3cn4cc(C(=O)Nc5cccn(C(F)F)c5=O)c(OC5COC5)cc4n3)(CO1)C2` [Example 441, N-(1-(difluoromethyl)-2-oxo-1,2-dihydropyridin-3-yl)-2-(1-methyl-2-oxabicyclo[2.1.1]hexan-4-yl)-7-(oxetan-3-yloxy)imidazo[1,2-a]pyridine-6-carboxamide], the IC50 worked out at 0.0034 µM.
`COc1cc2nc(C3CCOCC3)cn2cc1C(=O)Nc1cccc(F)c1F` [Example 113] registered an IC50 of 0.0357 µM.
In turn, `CCOc1nc(C(=O)Nc2cccc(C(F)F)n2)cn2cc([C@]34CC[C@](C)(C3)OC4)nc12` (single isomer, unassigned) [Example 600] yielded an IC50 of 0.0012 µM.
Take `O=C(Nc1cccc(C(F)F)n1)c1cn2cc(C3CC3)nc2cc1OC1CCC1` [Example 474, 7-Cyclobutoxy-2-cyclopropyl-N-(6-(difluoromethyl)pyridin-2-yl)imidazo[1,2-a]pyridine-6-carboxamide]: the IC50 came out at 0.0007 µM.
Take `COc1cc2nc(C3CCOCC3)cn2cc1C(=O)Nc1cccnc1O` [Example 189]: the IC50 was 0.0165 µM.
The same measure, in the same setting: with `COc1ncccc1NC(=O)c1cn2cc(C3CC3)nc2cc1OC1CCCC1` [Example 464, 7-(Cyclopentyloxy)-2-cyclopropyl-N-(2-methoxypyridin-3-yl)imidazo[1,2-a]pyridine-6-carboxamide] the figure was 0.0081 µM; with `CC12CCC(c3cn4cc(C(=O)Nc5cnn6cccnc56)c(OC5CCC5)cc4n3)(CO1)C2` (stereo not drawn) [Example 425, 7-Cyclobutoxy-2-(1-methyl-2-oxabicyclo[2.2.1]heptan-4-yl)-N-(pyrazolo[1,5-a]pyrimidin-3-yl)imidazo[1,2-a]pyridine-6-carboxamide], 0.0004 µM; with `CC(C)Oc1cc2nc(C34COC(C)(C3)C4)cn2cc1C(=O)Nc1cncc2cccnc12` [Example 320, 7-Isopropoxy-2-(1-methyl-2-oxabicyclo[2.1.1]hexan-4-yl)-N-(1,6-naphthyridin-8-yl)imidazo[1,2-a]pyridine-6-carboxamide], 0.0004 µM.
Molecule `COc1cccc(NC(=O)c2cn3cc(C4CC5CCC(C4)O5)nc3cc2OC(C)C)n1` (stereo not drawn) [Example 94, 2-(8-oxabicyclo[3.2.1]octan-3-yl)-7-isopropoxy-N-(6-methoxypyridin-2-yl)imidazo[1,2-a]pyridine-6-carboxamide] gave an IC50 of 0.0178 µM.
Consider `CC(C)Oc1cc2nc([C@@]34CC[C@@](C)(C3)OC4)cn2cc1C(=O)Nc1cc(F)n(C)n1` (single isomer, unassigned) [Example 603], for which half-maximal inhibition (IC50) was put at 0.0053 µM.
For `COc1cccc(NC(=O)c2cn3cc(C45COC(C)(C4)C5)nc3cc2OC2CCC2)n1` [Example 529, 7-Cyclobutoxy-N-(6-methoxypyridin-2-yl)-2-(1-methyl-2-oxabicyclo[2.1.1]hexan-4-yl)imidazo[1,2-a]pyridine-6-carboxamide], the midpoint of inhibition, the IC50, lay at 0.0003 µM.
The molecule `Cc1cnc2c(NC(=O)c3cn4cc([C@@]56CC[C@@](C)(C5)OC6)nc4nc3OC(C)C)cnn2c1` (single isomer, unassigned) [Example 616] registered an IC50 of 0.0002 µM.
The same measure, in the same setting: for `COc1cc2nc(C3CCOCC3)cn2cc1C(=O)Nc1ccc(F)cc1OC(C)C` [Example 109] the value was 0.114 µM; for `Cn1ccc(NC(=O)c2cn3cc(C45COC(C)(C4)C5)nc3nc2OCC2CC2)n1` [Example 370, 7-(Cyclopropylmethoxy)-N-(1-methyl-1H-pyrazol-3-yl)-2-(1-methyl-2-oxabicyclo[2.1.1]hexan-4-yl)imidazo[1,2-a]pyrimidine-6-carboxamide], 0.0016 µM.
In the case of `CCOc1nc(C(=O)Nc2ccn(C(F)F)n2)cn2cc(C34COC(C)(C3)C4)nc12` [Example 490, N-(1-(difluoromethyl)-1H-pyrazol-3-yl)-8-ethoxy-2-(1-methyl-2-oxabicyclo[2.1.1]hexan-4-yl)imidazo[1,2-a]pyrazine-6-carboxamide], the IC50 is 0.0065 µM.

Still in this assay, the particulars now being: IRAK4 Biochemical Assay (1 mM ATP, 2 h) IC50 (μM), 1 mM ATP, 2 h, 100 pM IRAK4.
Molecule `CC(C)Oc1cc2nc(C34COC(C)(C3)C4)cn2cc1C(=O)Nc1ccn(C)n1` [Example 297, 7-Isopropoxy-N-(1-methyl-1H-pyrazol-3-yl)-2-(1-methyl-2-oxabicyclo[2.1.1]hexan-4-yl)imidazo[1,2-a]pyridine-6-carboxamide trifluoroacetate] showed an IC50 of 0.0048 µM.
`CCOc1cc2nc(C3CCOCC3)cn2cc1C(=O)Nc1cccc(C(F)CF)n1` (stereo not drawn) [Example 392, N-(6-(1,2-difluoroethyl)pyridin-2-yl)-7-ethoxy-2-(tetrahydro-2H-pyran-4-yl)imidazo[1,2-a]pyridine-6-carboxamide hydrochloride] displayed a concentration for half-maximal inhibition (IC50) of 0.0018 µM.
Same read-out and setting: for `CCc1cccc(NC(=O)c2cn3cc(C4CC5(CCOC5)C4)nc3cc2OC)n1` (stereo not drawn) [Example 62] the value was 0.0038 µM; for `COc1cc2nc(C34COC(CF)(C3)C4)cn2cc1C(=O)Nc1ccccn1` [Example 5], 0.0721 µM.
The same measure, in the same setting: for `CCCOc1nc(C(=O)Nc2cccnc2OC)cn2cc(C34CCC(C)(C3)OC4)nc12` (stereo not drawn) [Example 275, N-(2-methoxypyridin-3-yl)-2-(1-methyl-2-oxabicyclo[2.2.1]heptan-4-yl)-8-propoxyimidazo[1,2-a]pyrazine-6-carboxamide trifluoroacetate] the value was 0.0007 µM; for `CC(C)Oc1cc2nc(C34COC(C)(C3)C4)cn2cc1C(=O)Nc1cnn2cccnc12` [Example 299, 7-Isopropoxy-2-(1-methyl-2-oxabicyclo[2.1.1]hexan-4-yl)-N-(pyrazolo[1,5-a]pyrimidin-3-yl)imidazo[1,2-a]pyridine-6-carboxamide trifluoroacetate], 0.0005 µM.
With `COc1cccc(NC(=O)c2cn3cc(C45COC(C)(C4)C5)nc3c(F)c2OC(C)C)n1` [Example 548, 8-Fluoro-7-isopropoxy-N-(6-methoxypyridin-2-yl)-2-(1-methyl-2-oxabicyclo[2.1.1]hexan-4-yl)imidazo[1,2-a]pyridine-6-carboxamide trifluoroacetate], it took 0.0082 µM to reach half-maximal inhibition (IC50).
The molecule `COc1nc(C(=O)Nc2cccc(C(F)(F)F)n2)cn2cc(C3CCOCC3)nc12` [Example 76] yielded an IC50 of 0.0095 µM.
`CC12CC(c3cn4cc(C(=O)Nc5cccn(C(F)F)c5=O)c(OCC5CC(F)(F)C5)cc4n3)(CO1)C2` [Example 448, 7-((3,3-Difluorocyclobutyl)methoxy)-N-(1-(difluoromethyl)-2-oxo-1,2-dihydropyridin-3-yl)-2-(1-methyl-2-oxabicyclo[2.1.1]hexan-4-yl)imidazo[1,2-a]pyridine-6-carboxamide]: 0.0013 µM corresponded to half-maximal inhibition (IC50).

By IC50 is commonly meant the concentration at which inhibition is half-maximal.
